Laboratory results as given in patent US4902791A, “Nitrosourea derivatives, process for their preparation and medicaments containing them” (Sanofi S.A., priority 1983, dated 1990).

Key:
L1210 U.S.A. strain = experiment: antitumor activity on leukemia L1210 U.S.A., compounds of formula IA, I.P.; type: in vivo, mouse
Description: On the day of the graft (by convention day 0=DO) an inoculum of 1×10^5 tumor cells in a volume of 0.2 ml is administered to each mouse by the intraperitoneal route (I.P.).
This inoculum is prepared by diluting ascites fluid taken from the peritoneum of a donor female mouse in NCTC 109 medium (Eurobio Laboratories Paris, France), counting of the cells in a MALASSEZ cell under a microscope and adjustment of the concentration to 5×10^5cells per ml.
After the tumor graft has been made, the mice are distributed at random in cages of 5 animals. Subsequently, these cages containing 5 mice are themselves distributed at random into a control group (control) and groups treated with the products of the invention.
(§1) The doses of the products of the invention used in the different experiments are expressed in milligrams per kilogram of body weight.
(§2) The products to be injected were dissolved in isotonic sodium chloride solution.
Two protocols for treatment were used in the different experiments:
(§3) or 3 I.P. injections on D1, D5, D9.
(§4) In each experiment the animals of the control group received 1 or more injections, depending on the experimental protocol used, by the same route (I.P. or I.V.) of the same volume (0.2 ml/20 g) of the vehicle not containing the active principle (isotonic sodium chloride solution).
(§5) the number and percentage of the total of the mice surviving to D60,
(§6) the T/C×100 for treated groups.
(§7) T representing the mean survival time of the mice in the treated group
(§8) C representing the mean survival time of the mice in the control group (control).

melanoma B16 [1] = experiment: activity toward melanoma B16 implanted subcutaneously, I.V. route; type: in vivo, mouse
Description: The activity of the substances of the invention was also tested by administering the said substances of the invention by the I.V. route. 0.5 ml of an homogenate of the tumor (1 g/10 ml) is administered to B6C3F1 female mice by the subcutaneous (S.C. route) on day 0. The products of the invention and the substances used for comparison are administered on days 3, 7 and 11 in isotonic solution.
In Table IIA below the results are presented relating to the activity of the substance CI. 1675 administered by the I.V. route on the growth of the melanoma B16 implanted subcutaneously, in comparison with carmustine BCNU marketed under the name of BiCNU®.
In Table IIA below and in the subsequent tables, T represents the mean weight (or median) of the tumors in the treated mice, C represents the mean weight (or median) of the tumors in the control, untreated mice and the ratio T/C% corresponds to T/C×100.

melanoma B16 [2] = experiment: antitumor activity on melanoma B16, compounds of formula IA, I.P.; type: in vivo, mouse; details: B6 D2 F1, I.P. D1, D5, D9, 3×10 mg/kg
Description: The experiments were always carried out on SPF female mice B6 D2 F1/JIco (first generation hybrids between the lines C5BL/6 and DBA/2).
On the day of the graft (Day 0) an inoculum of 2×10^6 tumor cells in a volume of 0.5 ml is administered to each mouse by the intraperitoneal route (I.P.). This inoculum is prepared from a sub-cutaneous tumor excised from a donor female mouse. After excision the tumor is fragmented by means of a pair of scissors in the NCTC 109 medium. After filtration through sterile gauze in order to remove large cellular fragments, the homogeneous cell suspension obtained is counted by means of a MALASSEZ cell and diluted to the desired concentration (4×10^6 tumor cells per ml) by dilution with the NCTC 109 medium.
This was performed in the manner described previously for the leukemia L1210.
as §1, §2, §3, §4, §5, §6, §7, §8

colon carcinoma C38 [3] = experiment: colon carcinoma C38, comparison of I.V. and I.P. routes, treatment days 8, 12, 16; type: in vivo, mouse; design: key to Median wt. of the tumor D20 / Median wt. of the tumor D27: median tumor weight in mg
Description: With a view to verifying the antitumor activity of the product of the invention CI.1671 when it is administered by the I.V. route, another experiment was performed in which this product was administered by the I.P. route and the I.V. route for the purposes of comparison.
This experiment is carried out under particularly difficult conditions, the first day of the treatment corresponding to the eighth day after the implantation of the carcinoma C38, whereas normally the treatment starts on the day of implantation of the tumor (D0) or 1 day after (D1) the implantation of the tumor.
The median weight of the tumors on the first day of treatment (day 8) is about 12 mg (tumors varying from 8 to 40 mg). The animals are treated on days 8, 12 and 16 depending on the different routes indicated. […]

[4] = toxicological study, lethal doses (Table IA); details: mouse, in vivo
Source text: The results relating to toxicology are brought together in Table IA below:

colon carcinoma C38 [5] = experiment: activity on colon carcinoma C38 implanted subcutaneously, I.P. days 2 and 9; type: in vivo, mouse
Description: A tumor fragment is implanted on day 0 in female B6 D2 F1 mice (19-22 g). The treatment with all of the products is administered by the I.P. route on days 2 and 9 (which is a delayed treatment). The weight of the tumors is calculated on day 20.

[6] = B6 D2 F1, I.P. D1, D5, D9, 3×1.25 mg/kg
[7] = B6 D2 F1, I.P. D1, D5, D9, 3×5 mg/kg
[8] = I.P., 10 mg/kg/inj. days 2 and 9
[9] = I.P., 20 mg/kg/inj. days 2 and 9
[10] = I.P., 30 mg/kg/inj. days 2 and 9

Structure (SMILES): CO[C@@H]1O[C@H](CO)C[C@H](NC(=O)N(CCCl)N=O)[C@H]1O [CI. 1675, methyl 3-[3-(2-chloroethyl) 3-nitrosoureido] 3,4-dideoxy-β-D-xylo-hexopyranoside]
- Number of survivors at D60 (L1210 U.S.A. strain; [6]): 0/10
- T/C (L1210 U.S.A. strain; [6]): 164
- Number of survivors at D60 (L1210 U.S.A. strain; [7]): 5/10
- T/C (L1210 U.S.A. strain; [7]): > 600
- Median weight of the tumor on day 3 (melanoma B16 [1]; 10 mg/kg/inj. days 3, 7, 11): 32,0 mg
- Median weight of the tumor on day 30 (melanoma B16 [1]; 10 mg/kg/inj. days 3, 7, 11): 2 025 mg
- T/C on day 30 (tumor weight) (melanoma B16 [1]; 10 mg/kg/inj. days 3, 7, 11): 25,9%
- Median weight of the tumor on day 3 (melanoma B16 [1]; 15 mg/kg/inj. days 3, 7, 11): 23,0 mg
- Median weight of the tumor on day 30 (melanoma B16 [1]; 15 mg/kg/inj. days 3, 7, 11): 1 044 mg
- T/C on day 30 (tumor weight) (melanoma B16 [1]; 15 mg/kg/inj. days 3, 7, 11): 13,4%
- Median weight of the tumor on day 3 (melanoma B16 [1]; 20 mg/kg/inj. days 3, 7, 11): 36,0 mg
- Median weight of the tumor on day 30 (melanoma B16 [1]; 20 mg/kg/inj. days 3, 7, 11): 688 mg
- T/C on day 30 (tumor weight) (melanoma B16 [1]; 20 mg/kg/inj. days 3, 7, 11): 8,8%
- Number of survivors at D60 (melanoma B16 [2]): 8/10
- T/C (melanoma B16 [2]): 258
- Median wt. of the tumor D20 (colon carcinoma C38 [3]; I.P. Route, 10 mg/kg/inj.): 324
- Median wt. of the tumor D27 (colon carcinoma C38 [3]; I.P. Route, 10 mg/kg/inj.): 1099
- Mice without tumor/total D20 (colon carcinoma C38 [3]; I.P. Route, 10 mg/kg/inj.): 0
- Mice without tumor/total D27 (colon carcinoma C38 [3]; I.P. Route, 10 mg/kg/inj.): 0
- T/C % D20 (colon carcinoma C38 [3]; I.P. Route, 10 mg/kg/inj.): 57%
- T/C % D27 (colon carcinoma C38 [3]; I.P. Route, 10 mg/kg/inj.): 84%
- Median wt. of the tumor D20 (colon carcinoma C38 [3]; I.P. Route, 15 mg/kg/inj.): 88
- Median wt. of the tumor D27 (colon carcinoma C38 [3]; I.P. Route, 15 mg/kg/inj.): 726
- Mice without tumor/total D20 (colon carcinoma C38 [3]; I.P. Route, 15 mg/kg/inj.): 0
- Mice without tumor/total D27 (colon carcinoma C38 [3]; I.P. Route, 15 mg/kg/inj.): 0
- T/C % D20 (colon carcinoma C38 [3]; I.P. Route, 15 mg/kg/inj.): 15%
- T/C % D27 (colon carcinoma C38 [3]; I.P. Route, 15 mg/kg/inj.): 56%
- Median wt. of the tumor D20 (colon carcinoma C38 [3]; I.P. Route, 20 mg/kg/inj.): 13
- Median wt. of the tumor D27 (colon carcinoma C38 [3]; I.P. Route, 20 mg/kg/inj.): 172
- Mice without tumor/total D20 (colon carcinoma C38 [3]; I.P. Route, 20 mg/kg/inj.): 1/8
- Mice without tumor/total D27 (colon carcinoma C38 [3]; I.P. Route, 20 mg/kg/inj.): 2/8
- T/C % D20 (colon carcinoma C38 [3]; I.P. Route, 20 mg/kg/inj.): 2%
- T/C % D27 (colon carcinoma C38 [3]; I.P. Route, 20 mg/kg/inj.): 13%
- Median wt. of the tumor D20 (colon carcinoma C38 [3]; I.V. Route, 10 mg/kg/inj.): 23
- Median wt. of the tumor D27 (colon carcinoma C38 [3]; I.V. Route, 10 mg/kg/inj.): 352
- Mice without tumor/total D20 (colon carcinoma C38 [3]; I.V. Route, 10 mg/kg/inj.): 0/8
- Mice without tumor/total D27 (colon carcinoma C38 [3]; I.V. Route, 10 mg/kg/inj.): 0/8
- T/C % D20 (colon carcinoma C38 [3]; I.V. Route, 10 mg/kg/inj.): 4%
- T/C % D27 (colon carcinoma C38 [3]; I.V. Route, 10 mg/kg/inj.): 27%
- Median wt. of the tumor D20 (colon carcinoma C38 [3]; I.V. Route, 15 mg/kg/inj.): 0
- Median wt. of the tumor D27 (colon carcinoma C38 [3]; I.V. Route, 15 mg/kg/inj.): 0
- Mice without tumor/total D20 (colon carcinoma C38 [3]; I.V. Route, 15 mg/kg/inj.): 7/8
- Mice without tumor/total D27 (colon carcinoma C38 [3]; I.V. Route, 15 mg/kg/inj.): 7/7
- T/C % D20 (colon carcinoma C38 [3]; I.V. Route, 15 mg/kg/inj.): 0%
- T/C % D27 (colon carcinoma C38 [3]; I.V. Route, 15 mg/kg/inj.): 0%
- Median wt. of the tumor D20 (colon carcinoma C38 [3]; I.V. Route, 20 mg/kg/inj.): 0
- Median wt. of the tumor D27 (colon carcinoma C38 [3]; I.V. Route, 20 mg/kg/inj.): 0
- Mice without tumor/total D20 (colon carcinoma C38 [3]; I.V. Route, 20 mg/kg/inj.): 6/8
- Mice without tumor/total D27 (colon carcinoma C38 [3]; I.V. Route, 20 mg/kg/inj.): 6/6
- T/C % D20 (colon carcinoma C38 [3]; I.V. Route, 20 mg/kg/inj.): 0%
- T/C % D27 (colon carcinoma C38 [3]; I.V. Route, 20 mg/kg/inj.): 0%
- LD0 [4]: ≥ 20 mg/kg
- LD50 [4]: ~40 mg/kg
- efficacy against the colon carcinoma C38 (colon carcinoma C38 [5]; I.P. route, delayed treatment): considerable efficacy
- Number of mice without tumor/total (colon carcinoma C38 [5]; [8]): 1/10
- T/C (colon carcinoma C38 [5]; [8]): 67%
- Weight of the tumor on day 20 (colon carcinoma C38 [5]; [8]): 272 mg
- Number of mice without tumor/total (colon carcinoma C38 [5]; [9]): 7/9
- T/C (colon carcinoma C38 [5]; [9]): 0%
- Weight of the tumor on day 20 (colon carcinoma C38 [5]; [9]): 0 mg
- Number of mice without tumor/total (colon carcinoma C38 [5]; [10]): 7/7
- T/C (colon carcinoma C38 [5]; [10]): 0%
- Weight of the tumor on day 20 (colon carcinoma C38 [5]; [10]): 0 mg
- dead mice (remarks) (colon carcinoma C38 [5]; [10]): 5
